The source of these data is patent publication US20210015098A1, “MOLECULES HAVING PESTICIDAL UTILITY, AND INTERMEDIATES, COMPOSITIONS, AND PROCESSES, RELATED THERETO” (DOW AGROSCIENCES LLC, priority 2018, published 2021).

Structures are written as SMILES.

What all share (type): in vivo
Data set [1] deals with Cabbage Looper (Trichoplusia ni, TRIPNI). The experiment in a line: Bioassays on Cabbage Looper (CL), 128-well diet tray assay. The settings on record: for mortality at 50 µg/cm2: 168 h, 50 μg/cm^2 on artificial diet, second instar larvae, 25° C., five to seven days, read-out: CL % Control (or Mortality) rating; for pest or weed control at 50 µg/cm2: Cabbage Looper, Table ABC Biological Results, read-out: CL (rating). The method, then:
(§1) Certain molecules disclosed in this document were tested against BAW and CL using procedures described in the following examples. In the reporting of the results, the “BAW & CL Rating Table” was used (See Table Section).
Bioassays on CL were conducted using a 128-well diet tray assay. One to five second instar CL larvae were placed in each well (3 mL) of the diet tray that had been previously filled with 1 mL of artificial diet to which 50 μg/cm^2 of the test molecule (dissolved in 50 μL of 90:10 acetone-water mixture) had been applied (to each of eight wells) and then allowed to dry. Trays were covered with a clear self-adhesive cover, vented to allow gas exchange, and held at 25° C., 14:10 light-dark for five to seven days. Percent mortality was recorded for the larvae in each well; activity in the eight wells was then averaged. The results are indicated in the table entitled “Table ABC: Biological Results” (See Table Section).

In data set [2] the test system is Yellow Fever Mosquito (Aedes aegypti, AEDSAE). The settings on record: for YFM % Control (or Mortality) rating: about 1 day-old larvae, 96-well plate, room temperature, 3 days. The method, then:
Certain molecules disclosed in this document were tested against YFM using procedures described in the following paragraph. In the reporting of the results, the “GPA & YFM Rating Table” was used (See Table Section).
Master plates containing 400 μg of a molecule dissolved in 100 μL of dimethyl sulfoxide (DMSO) (equivalent to a 4000 ppm solution) are used. A master plate of assembled molecules contains 15 μL per well. To this plate, 135 μL of a 90:10 water/acetone mixture is added to each well. A robot (Biomek® NXP Laboratory Automation Workstation) is programmed to dispense 15 μL aspirations from the master plate into an empty 96-well shallow plate (“daughter” plate). There are 6 reps (“daughter” plates) created per master. The created “daughter” plates are then immediately infested with YFM larvae.
The day before plates are to be treated, mosquito eggs are placed in Millipore water containing liver powder to begin hatching (4 g into 400 mL). After the “daughter” plates are created using the robot, they are infested with 220 μL of the liver powder/larval mosquito mixture (about 1 day-old larvae). After plates are infested with mosquito larvae, a non-evaporative lid is used to cover the plate to reduce drying. Plates are held at room temperature for 3 days prior to grading. After 3 days, each well is observed and scored based on mortality. The results are indicated in the table entitled “Table ABC: Biological Results” (See Table Section).

Data set [3] concerns Beet Armyworm (Spodoptera exigua, LAPHEG). The experiment in a line: Bioassays on Beet Armyworm (BAW), 128-well diet tray assay. The settings on record: for mortality at 50 µg/cm2: 168 h, 50 μg/cm^2 on artificial diet, second instar larvae, 25° C., five to seven days, read-out: BAW % Control (or Mortality) rating; for pest or weed control at 50 µg/cm2: Beet Armyworm, Table ABC Biological Results, read-out: BAW (rating). The method, then: as §1
Bioassays on BAW were conducted using a 128-well diet tray assay. One to five second instar BAW larvae were placed in each well (3 mL) of the diet tray that had been previously filled with 1 mL of artificial diet to which 50 μg/cm^2 of the test molecule (dissolved in 50 μL of 90:10 acetone-water mixture) had been applied (to each of eight wells) and then allowed to dry. Trays were covered with a clear self-adhesive cover, vented to allow gas exchange, and held at 25° C., 14:10 light-dark for five to seven days. Percent mortality was recorded for the larvae in each well; activity in the eight wells was then averaged. The results are indicated in the table entitled “Table ABC: Biological Results” (See Table Section).

For `Nc1c(F)ccc(NC(=O)c2cc(NC(=O)[C@H]3[C@H](c4cc(C(F)(F)F)cc(C(F)(F)F)c4)C3(Cl)Cl)ccc2Cl)c1F` (relative stereo) [DP7, trans-N-(3-Amino-2,4-difluorophenyl)-5-(3-(3,5-bis(trifluoromethyl)phenyl)-2,2-dichlorocyclopropane-1-carboxamido)-2-chlorobenzamide], the mortality at 50 µg/cm2 in data set [1] and in data set [3] was 50 to 100% throughout. In data set [2], the “YFM % Control (or Mortality) rating” value is recorded as “A (80-100)”.
As to `CC(C)(C)OC(=O)N(C(=O)OC(C)(C)C)c1c(F)ccc(NC(=O)c2cc(NC(=O)[C@H]3[C@H](c4cc(Cl)c(Cl)c(Cl)c4)C3(Cl)Cl)ccc2Cl)c1F` [DP1, tert-butyl-N-((tert-butoxy)carbonyl)-N-(3-(2-chloro-5-((1R,3R)-2,2-dichloro-3-(3,4,5-trichlorophenyl)cyclopropane-1-carboxamido)benzamido)-2,6-difluorophenyl)carbamate], the mortality at 50 µg/cm2 in data set [1] is 0%; in data set [3] it was 0 to 50%. Besides, the “YFM % Control (or Mortality) rating” value in data set [2] is “D (No activity noticed in this bioassay)”.
The corresponding values for `Nc1c(F)ccc(NC(=O)c2cc(NC(=O)[C@H]3[C@H](c4cc(Cl)c(Cl)c(Cl)c4)C3(Cl)Cl)ccc2Cl)c1F` [DP2, N-(3-amino-2,4-difluorophenyl)-2-chloro-5-((1R,3R)-2,2-dichloro-3-(3,4,5-trichlorophenyl)cyclopropane-1-carboxamido)benzamide] are 50 to 100%, 50 to 100% and “A (80-100)”.
Consider `Nc1c(F)ccc(NC(=O)c2cc(NC(=O)[C@H]3[C@H](c4ccc(Cl)c(Cl)c4)C3(Cl)Cl)ccc2Cl)c1F` [DP3, N-(3-Amino-2,4-difluorophenyl)-2-chloro-5-((1R,3R)-2,2-dichloro-3-(3,4-dichlorophenyl)cyclopropane-1-carboxamido)benzamide], for which the mortality at 50 µg/cm2 in data set [1] and in data set [3] was 50 to 100% in each case. Moreover, the “YFM % Control (or Mortality) rating” value in data set [2] is given as “A (80-100)”.
On to `Nc1c(F)ccc(NC(=O)c2cc(NC(=O)[C@H]3[C@H](c4ccc(F)c(Cl)c4)C3(Cl)Cl)ccc2Cl)c1F` [DP4, N-(3-Amino-2,4-difluorophenyl)-2-chloro-5-((1R,3R)-2,2-dichloro-3-(3-chloro-4-fluorophenyl)cyclopropane-1-carboxamido)benzamide], for which the mortality at 50 µg/cm2 in data set [1] and in data set [3] was 50 to 100% throughout. The “YFM % Control (or Mortality) rating” value in data set [2] is “A (80-100)”.
Turning to `Nc1c(F)ccc(NC(=O)c2cc(NC(=O)[C@H]3[C@H](c4ccc(F)c(C(F)(F)F)c4)C3(Cl)Cl)ccc2Cl)c1F` [DP5, N-(3-Amino-2,4-difluorophenyl)-2-chloro-5-((1R,3R)-2,2-dichloro-3-(4-fluoro-3-(trifluoromethyl)phenyl)cyclopropanecarboxamido)benzamide], the mortality at 50 µg/cm2 in data set [1] and in data set [3] was 50 to 100% each time. For the same compound, the “YFM % Control (or Mortality) rating” value in data set [2] was “A (80-100)”.
On to `Nc1c(F)ccc(NC(=O)c2cc(NC(=O)[C@H]3[C@H](c4cc(F)cc(C(F)(F)F)c4)C3(Cl)Cl)ccc2Cl)c1F` [DP8, N-(3-Amino-2,4-difluorophenyl)-2-chloro-5-((1R,3R)-2,2-dichloro-3-(3-fluoro-5-(trifluoromethyl)phenyl)cyclopropane-1-carboxamido)benzamide], for which the mortality at 50 µg/cm2 in data set [1] and in data set [3] was 50 to 100% in each case. In data set [2], the “YFM % Control (or Mortality) rating” value was “A (80-100)”.
In the case of `O=C(CSCC(F)(F)F)Nc1c(F)ccc(NC(=O)c2cc(NC(=O)[C@H]3[C@H](c4ccc(F)c(C(F)(F)F)c4)C3(Cl)Cl)ccc2Cl)c1F` [F15, 2-chloro-5-((R,3R)-2,2-dichloro-3-(4-fluoro-3-(trifluoromethyl)phenyl)cyclopropane-1-carboxamido)-N-(2,4-difluoro-3-(2-((2,2,2-trifluoroethyl)thio)acetamido)phenyl)benzamide], the pest or weed control at 50 µg/cm2 in data set [1] and in data set [3] was 50 to 100% in each case. Moreover, in data set [2] (Yellow Fever Mosquito, Table ABC Biological Results), the “YFM (rating)” value is listed as “A (80-100)”.
With `O=C(CS(=O)(=O)CC(F)(F)F)Nc1c(F)ccc(NC(=O)c2cc(NC(=O)[C@H]3[C@H](c4ccc(F)c(C(F)(F)F)c4)C3(Cl)Cl)ccc2Cl)c1F` [F44, 2-Chloro-5-((1R,3R)-2,2-dichloro-3-(4-fluoro-3-(trifluoromethyl)phenyl)cyclopropane-1-carboxamido)-N-(2,4-difluoro-3-(2-((2,22-trifluoroethyl)sulfonyl)acetamido)phenyl)benzamide], the pest or weed control at 50 µg/cm2 in data set [1] and in data set [3] was 50 to 100% each time.
As for `CCS(=O)(=O)C(C)C(=O)Nc1c(F)ccc(NC(=O)c2cc(NC(=O)[C@H]3[C@H](c4ccc(F)c(C(F)(F)F)c4)C3(Cl)Cl)ccc2Cl)c1F` (stereo partly drawn) [F45, 2-chloro-5-((R,3R)-2,2-dichloro-3-(4-fluoro-3-(trifluoromethyl)phenyl)cyclopropane-1-carboxamido)-N-(3-(2-(ethylsulfonyl)propanamido)-2,4-difluorophenyl)benzamide], the pest or weed control at 50 µg/cm2 in data set [1] and in data set [3] was 50 to 100% in each case.
As for `O=C(CSC(F)(F)F)Nc1c(F)ccc(NC(=O)c2cc(NC(=O)[C@H]3[C@H](c4cccc(C(F)(F)F)c4)C3(Cl)Cl)ccc2Cl)c1F` [F47, 2-Chloro-5-((1R,3R)-2,2-dichloro-3-(3-(trifluoromethyl)phenyl)cyclopropane-1-carboxamido)-N-(2,4-difluoro-3-(2-((trifluoromethyl)thio)acetamido)phenyl)benzamide], the pest or weed control at 50 µg/cm2 in data set [1] and in data set [3] was 50 to 100% throughout.
With `O=C(CSC(F)(F)F)Nc1c(F)ccc(NC(=O)c2cc(NC(=O)[C@H]3[C@H](c4cc(F)cc(C(F)(F)F)c4)C3(Cl)Cl)ccc2Cl)c1F` [F49, 2-Chloro-5-((1R,3R)-2,2-dichloro-3-(3-fluoro-5-(trifluoromethyl)phenyl)cyclopropane-1-carboxamido)-N-(2,4-difluoro-3-(2-((trifluoromethyl)thio)acetamido)phenyl)benzamide], the pest or weed control at 50 µg/cm2 in data set [1] and in data set [3] was 50 to 100% each time.
Turning to `CSCC(=O)Nc1ccc(NC(=O)c2cc(NC(=O)[C@H]3[C@H](c4ccc(F)c(C(F)(F)F)c4)C3(Cl)Cl)ccc2Cl)c(F)c1` [F50, 2-Chloro-5-((1R,3R)-2,2-dichloro-3-(4-fluoro-3-(trifluoromethyl)phenyl)cyclopropane-1-carboxamido)-N-(2-fluoro-4-(2-(methylthio)acetamido)phenyl)benzamide], the pest or weed control at 50 µg/cm2 in data set [1] and in data set [3] was 50 to 100% in each case.
With `O=C(CSC(F)(F)F)Nc1ccc(NC(=O)c2cc(NC(=O)[C@H]3[C@H](c4ccc(F)c(C(F)(F)F)c4)C3(Cl)Cl)ccc2Cl)c(F)c1` [F51, 2-Chloro-5-((1R,3R)-2,2-dichloro-3-(4-fluoro-3-(trifluoromethyl)phenyl)cyclopropane-1-carboxamido)-N-(2-fluoro-4-(2-((trifluoromethyl)thio)acetamido)phenyl)benzamide], the pest or weed control at 50 µg/cm2 in data set [1] and in data set [3] was 50 to 100% in each case.
In the case of `O=C(CSCC(F)(F)F)Nc1ccc(NC(=O)c2cc(NC(=O)[C@H]3[C@H](c4ccc(F)c(C(F)(F)F)c4)C3(Cl)Cl)ccc2Cl)c(F)c1` [F52, 2-Chloro-5-((1R,3R)-2,2-dichloro-3-(4-fluoro-3-(trifluoromethyl)phenyl)cyclopropane-1-carboxamido)-N-(2-fluoro-4-(2-((2,2,2-trifluoroethyl)thio)acetamido)phenyl)benzamide], the pest or weed control at 50 µg/cm2 in data set [1] and in data set [3] was 50 to 100% throughout.

What is called mortality is the percentage killed.
